The values that follow come from patent US11667946B2, “Detection of beta-hemolytic pathogens” (TEMASEK LIFE SCIENCES LABORATORY LIMITED, priority 2016, dated 2023).

Series [1] has as its system gram-negative bacteria. The series can be described thus: Uptake of free H33342 by bacteria on BHI agar. In kind it is cell-based. How it is done:
(§1) Uptake of free H33342 by bacteria: The uptake of free H33342 was investigated by repeating the experiment as above but replacing liposomal H33342 with free H33342 dye (final concentration, 160 nM). Sodium hexametaphosphate (305553, Sigma-Aldrich) was added to a concentration of up to 0.3% for membrane permeabilization experiments.

The subject of series [2] is gram-positive bacteria. Description: Uptake of free H33342 by bacteria on BHI agar. In kind it is cell-based. The following applies: 160 nM, overnight. The protocol: as §1
The test system of series [3] is a variety of bacteria. The series can be described thus: Culturing bacteria on BHI agar with free H33342. The series is classed as cell-based. The following applies: 160 nM. How it is done:
as §1

Series [4] relates to E. coli. The series can be described thus: Membrane permeabilization with sodium hexametaphosphate (H33342 uptake). The series is classed as cell-based, Escherichia coli. The following applies: H33342 agar with sodium hexametaphosphate. The protocol: as §1
Series [5] deals with S. pyogenes. The series is described as above. The series is classed as cell-based, Streptococcus pyogenes. The following applies: at 0.3%. How it is done:
as §1

For the compound `CCOc1ccc(-c2nc3ccc(-c4nc5ccc(N6CCN(C)CC6)cc5[nH]4)cc3[nH]2)cc1` [H33342, Hoechst 33342], the uptake of dye entry in series [1] is recorded as “not taken up”. Besides, in series [2], the “colony association with / uptake of free dye” value is “fluoresce blue”. The lethality to bacteria entry in series [3] is recorded as “non-lethal”.
Take `O=P1([O-])OP(=O)([O-])OP(=O)([O-])OP(=O)([O-])OP(=O)([O-])OP(=O)([O-])O1.[Na+].[Na+].[Na+].[Na+].[Na+].[Na+]` [sodium hexametaphosphate]: the “increase of colony fluorescence” value in series [4] amounted to 80%. In addition, the lethality to bacterium result in series [5] is “lethal”.
